From patent US7713994B2 (Wyeth LLC, priority 2005, dated 2010) come the findings set out here.

Broadly, the IC50 is the concentration at which inhibition is half-maximal.

Read-outs that look alike come from different tables or passages of the source. Bounds are passed on as bounds.

For one experiment, the system named is BT474. Put plainly: Cytotoxicity assay (SRB), BT474. It counts as cell-based. The method, boiled down: (§1)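 Overnight-seeded monolayers (4000–12000 cells/well by line) receive compound in 5% FBS medium at 37 °C, 7% CO2. After 3 d, or 6 d for BT474, cellular protein is fixed with cold TCA, stained with SRB and read at 540 nm against untreated wells.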
For another experiment, the target named is T1, cyclin E/CDK2 enzyme (Homo sapiens, UniProt P24941).
T1 construct: made in house; host or cells: Sf9 insect cells, recombinant baculovirus
Put plainly: CDK2 ELISA kinase assay (phospho-Rb ser 795 detection). It counts as biochemical. An outline of the steps: (§2)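 Screening was done at 10 ug/ml compound. Each partially purified cyclin/CDK complex, produced in baculovirus-infected Sf9 cells, phosphorylated a coated GST-Rb C-terminal fragment with 200 μM ATP, and Ser795 phosphorylation was quantified by HRP-ELISA at 450 nm.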
In general terms: ELISA stands for enzyme-linked immunosorbent assay.

Another experiment concerns MCF-7. Put plainly: Cytotoxicity assay (SRB), MCF-7. It counts as cell-based. The following applies: Homo sapiens, MCF7, 72 h, MCF-7 cells, SRB, read-out: In Vitro Cellular Activity IC50 MCF-7. An outline of the steps: as §1
Another experiment has as its target T2, cyclin B/CDK1 enzyme (Homo sapiens, UniProt P06493).
T2 construct: purchased New England BioLabs; host or cells: Sf9 insect cells, recombinant baculovirus
Put plainly: CDK1 ELISA kinase assay (phospho-Rb ser 795 detection). The format is biochemical. The method, boiled down:
as §2

The target in the next experiment is T3, cyclin D1/cdk 4 enzyme (Homo sapiens, UniProt P11802).
T3 construct: made in house; host or cells: Sf9 insect cells, recombinant baculovirus
Put plainly: CDK4 ELISA kinase assay (phospho-Rb ser 795 detection). The format is biochemical. An outline of the steps: as §2

The next experiment deals with LoVo. Put plainly: Cytotoxicity assay (SRB), LoVo. It counts as cell-based. The following applies: Homo sapiens, LoVo, 72 h, LoVo cells, SRB, read-out: In Vitro Cellular Activity IC50 LOVO. The method, boiled down:
as §1

Another experiment deals with HCT-116. Put plainly: Cytotoxicity assay (SRB), HCT-116. It counts as cell-based. As to conditions: Homo sapiens, HCT-116, 72 h, HCT116 cells, SRB, read-out: In Vitro Cellular Activity IC50 HCT116. An outline of the steps:
as §1

Setting [1] is: Homo sapiens, BT-474, 144 h, BT474 cells, 6 days, SRB; read-out: In Vitro Cellular Activity IC50 BT474.
[2] abbreviates: In Vitro Enzyme Assays, read-out: CDK2 IC50.
The mark [3] stands for this setting: In Vitro Enzyme Assays, read-out: CDK1 IC50.
Setting [4] is: In Vitro Enzyme Assays, 200 μM ATP, read-out: CDK4 IC50.
Setting [5] is: Homo sapiens, BT-474, 144 h, BT474 cells, SRB, 6 days; read-out: In Vitro Cellular Activity IC50 BT474.
The mark [6] stands for this setting: In Vitro Enzyme Assay, cyclin E/CDK2, read-out: CDK2 IC50.
Where [7] appears, read: In Vitro Enzyme Assay, cyclin B/CDK1, read-out: CDK1 IC50.
The mark [8] stands for this setting: In Vitro Enzyme Assay, cyclin D1/cdk 4, read-out: CDK4 IC50.

T2 sequence (P06493 whole entry): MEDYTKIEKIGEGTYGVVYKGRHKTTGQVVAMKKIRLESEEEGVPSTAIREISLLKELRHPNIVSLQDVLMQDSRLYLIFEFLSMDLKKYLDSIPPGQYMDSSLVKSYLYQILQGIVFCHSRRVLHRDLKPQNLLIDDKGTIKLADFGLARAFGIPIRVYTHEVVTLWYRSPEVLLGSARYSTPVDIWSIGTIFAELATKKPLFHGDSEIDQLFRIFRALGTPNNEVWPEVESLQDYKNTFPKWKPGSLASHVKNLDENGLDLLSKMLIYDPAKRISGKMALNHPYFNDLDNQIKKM
T2 sequence (P14635 whole entry partner): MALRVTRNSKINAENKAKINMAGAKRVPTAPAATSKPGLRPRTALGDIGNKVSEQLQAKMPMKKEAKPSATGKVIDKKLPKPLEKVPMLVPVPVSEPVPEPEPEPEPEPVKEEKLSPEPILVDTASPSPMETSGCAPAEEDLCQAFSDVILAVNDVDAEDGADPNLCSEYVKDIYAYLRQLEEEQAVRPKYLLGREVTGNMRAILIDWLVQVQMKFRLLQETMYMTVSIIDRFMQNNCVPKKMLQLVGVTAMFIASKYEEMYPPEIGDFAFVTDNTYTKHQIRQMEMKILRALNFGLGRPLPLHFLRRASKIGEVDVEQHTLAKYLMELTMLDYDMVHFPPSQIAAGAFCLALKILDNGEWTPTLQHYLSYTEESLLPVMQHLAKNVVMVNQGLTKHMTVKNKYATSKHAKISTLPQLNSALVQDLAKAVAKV
T3 sequence (P11802 whole entry, species assumed): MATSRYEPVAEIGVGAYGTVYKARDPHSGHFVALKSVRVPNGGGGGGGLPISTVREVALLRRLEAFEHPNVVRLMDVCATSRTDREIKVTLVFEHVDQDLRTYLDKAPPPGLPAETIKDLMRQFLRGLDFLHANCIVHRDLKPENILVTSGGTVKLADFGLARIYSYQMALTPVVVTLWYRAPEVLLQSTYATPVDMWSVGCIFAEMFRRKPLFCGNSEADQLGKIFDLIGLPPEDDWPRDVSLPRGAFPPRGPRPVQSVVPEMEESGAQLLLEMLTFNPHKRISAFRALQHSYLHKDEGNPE
T3 sequence (P24385 whole entry partner, species assumed): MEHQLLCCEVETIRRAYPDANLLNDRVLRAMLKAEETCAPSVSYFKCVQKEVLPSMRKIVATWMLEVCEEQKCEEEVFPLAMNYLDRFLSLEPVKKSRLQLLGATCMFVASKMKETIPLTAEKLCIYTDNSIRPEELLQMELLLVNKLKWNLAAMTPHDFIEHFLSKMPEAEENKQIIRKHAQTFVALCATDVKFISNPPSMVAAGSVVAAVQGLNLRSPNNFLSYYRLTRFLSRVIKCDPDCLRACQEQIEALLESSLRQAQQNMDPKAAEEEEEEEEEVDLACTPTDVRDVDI

Regarding `O=C1NC(=O)c2ccc(-c3ccsc3)cc2/C1=C/Nc1ccc(C2CC=CCN2)cc1` (stereo not drawn) [Example 404, 4-{[4-(1,2,3,6-Tetrahydro-pyridin-2-yl)-phenylamino]-methylene}-6-thiophen-3-yl-4H-isoquinoline-1,3-dione], the IC50 with BT474 (setting [1]) is 3.1 µM; on cyclin E/CDK2 enzyme (setting [2]) it was 14.4 µM; with MCF-7 (3 days) it was 7.3 µM; at cyclin B/CDK1 enzyme (setting [3]), 25.3 µM; on cyclin D1/cdk 4 enzyme (setting [4]), 0.1 µM; with LoVo (3 days), 3.1 µM. Besides, the IC50 in the experiment with HCT-116 (3 days) was 1.6 µM.

As to `O=C1NC(=O)c2ccc(Br)cc2/C1=C/NCc1ccc(OCc2ccccc2)c(O)c1` [Example 147, (4Z)-4-({[4-(Benzyloxy)-3-hydroxybenzyl]amino}methylene)-6-bromoisoquinoline-1,3(2H,4H)-dione], the IC50 with BT474 (setting [5]) was > 50 µM; at cyclin E/CDK2 enzyme (setting [2]), 27.7 µM; in the experiment on MCF-7 (three days) it was 36 µM; at cyclin B/CDK1 enzyme (setting [3]) it was > 50 µM; on cyclin D1/cdk 4 enzyme (setting [4]), 4.6 µM; with LoVo (three days), 40 µM. Besides, the IC50 in the experiment on HCT-116 (three days) was 38 µM.

`O=C1NC(=O)c2ccc(-c3ccc(F)cc3)cc2C1=CNCc1ccc(O)c(O)c1` [Example 767, 4-[(3,4-Dihydroxy-benzylamino)-methylene]-6-(4-fluoro-phenyl)-4H-isoquinoline-1,3-dione]: the IC50 in the experiment on BT474 (setting [1]) was 44 µM; at cyclin E/CDK2 enzyme (setting [6]) it was 9 µM; with MCF-7 (3 days) it was 25.2 µM; on cyclin B/CDK1 enzyme (setting [7]), 15.4 µM; at cyclin D1/cdk 4 enzyme (setting [8]), 0.17 µM; with LoVo (3 days), 21.4 µM. Moreover, in the experiment with HCT-116 (3 days), the IC50 turned out to be 25.9 µM.

With `C#CC(=O)Nc1ccc(CN/C=C2\C(=O)NC(=O)c3ccc(I)cc32)cc1O` [Example 340, N-[2-Hydroxy-4-({[(Z)-(6-iodo-1,3-dioxo-2,3-dihydroisoquinolin-4(1H)-ylidene)methyl]amino}methyl)phenyl]prop-2-ynamide], the IC50 was 1.4 µM with BT474 (setting [5]); 1.6 µM at cyclin E/CDK2 enzyme (setting [2]); 1.4 µM in the experiment with MCF-7 (three days); 6.1 µM on cyclin B/CDK1 enzyme (setting [3]); 0.07 µM on cyclin D1/cdk 4 enzyme (setting [4]); 1.4 µM in the experiment with LoVo (three days). For the same compound, the IC50 in the experiment with HCT-116 (three days) turned out to be 1.2 µM.

On to `CCCOc1ccc(CN/C=C2\C(=O)NC(=O)c3ccc(-c4cccc(F)c4)cc32)cc1O` [Example 193, (4Z)-6-(3-Fluorophenyl)-4-{[(3-hydroxy-4-propoxybenzyl)amino]methylene}-isoquinoline-1,3(2H,4H)-dione], for which the IC50 in the experiment on BT474 (setting [5]) is > 50 µM; at cyclin E/CDK2 enzyme (setting [2]), > 50 µM; with MCF-7 (three days) it was 4.4 µM; at cyclin B/CDK1 enzyme (setting [3]), > 50 µM; on cyclin D1/cdk 4 enzyme (setting [4]), 1.4 µM; in the experiment with LoVo (three days), > 50 µM. Besides, in the experiment on HCT-116 (three days), the IC50 was 16 µM.

`COc1cccc(CC=Cc2ccc3c(c2)C(=CNCc2ccc(O)c(O)c2)C(=O)NC3=O)c1O` [Example 804, 4-[(3,4-Dihydroxy-benzylamino)-methylene]-6-[3-(2-hydroxy-3-methoxy-phenyl)-propenyl]-4H-isoquinoline-1,3-dione]: the half-maximal inhibitory concentration (IC50) in the experiment on BT474 (setting [1]) came out at 9.7 µM; at cyclin E/CDK2 enzyme (setting [6]), 18 µM; in the experiment on MCF-7 (3 days), 9.8 µM; on cyclin B/CDK1 enzyme (setting [7]), 37.1 µM; at cyclin D1/cdk 4 enzyme (setting [8]), 1 µM; with LoVo (3 days), 12.4 µM. Moreover, in the experiment on HCT-116 (3 days), the concentration for half-maximal inhibition (IC50) was 6.1 µM.

For the compound `N#CCc1ccc(NC=C2C(=O)NC(=O)c3ccc(-c4ccc[nH]4)cc32)cc1` [Example 630, (4-{[1,3-Dioxo-6-(1H-pyrrol-2-yl)-2,3-dihydro-1H-isoquinolin-4-ylidenemethyl]-amino}-phenyl)-acetonitrile], the IC50 with BT474 (setting [1]) came out at 45.3 µM; at cyclin E/CDK2 enzyme (setting [6]), 17.3 µM; in the experiment on MCF-7 (3 days) it was 20 µM; at cyclin B/CDK1 enzyme (setting [7]) it was 31 µM; on cyclin D1/cdk 4 enzyme (setting [8]) it was 0.2 µM; in the experiment on LoVo (3 days), 45.8 µM. Further, the IC50 in the experiment with HCT-116 (3 days) came to 26 µM.

In the case of `CCCN(Cc1ccc(NC=C2C(=O)NC(=O)c3ccccc32)cc1)CC1CC1` [Example 575, 4-({4-[(Cyclopropylmethyl-propyl-amino)-methyl]-phenylamino}-methylene)-4H-isoquinoline-1,3-dione], the IC50 in the experiment on BT474 (setting [1]) was 28.1 µM; at cyclin E/CDK2 enzyme (setting [6]), > 50 µM; in the experiment with MCF-7 (3 days), 20.3 µM; at cyclin B/CDK1 enzyme (setting [7]), 11.8 µM; at cyclin D1/cdk 4 enzyme (setting [8]) it was 9.2 µM; with LoVo (3 days), 21.8 µM. The half-inhibitory concentration (IC50) in the experiment on HCT-116 (3 days) turned out to be 16.6 µM.

For the compound `O=C1NC(=O)c2ccc(C=Cc3ccccn3)cc2C1=CNCc1ccc(O)c(O)c1` [Example 662, 4-[(3,4-Dihydroxy-benzylamino)-methylene]-6-(2-pyridin-2-yl-vinyl)-4H-isoquinoline-1,3-dione], the IC50 was 35.8 µM in the experiment on BT474 (setting [1]); > 50 µM at cyclin E/CDK2 enzyme (setting [6]); 30.6 µM with MCF-7 (3 days); > 50 µM at cyclin B/CDK1 enzyme (setting [7]); 0.17 µM on cyclin D1/cdk 4 enzyme (setting [8]); > 50 µM with LoVo (3 days). For the same compound, the half-inhibitory concentration (IC50) with HCT-116 (3 days) is > 50 µM.

`O=C1NC(=O)c2ccc(-c3ccc4ccccc4c3)cc2C1=CNCc1ccc(O)c(O)c1` [Example 641, 4-[(3,4-Dihydroxy-benzylamino)-methylene]-6-naphthalen-2-yl-4H-isoquinoline-1,3-dione]: the IC50 in the experiment on BT474 (setting [1]) is 19.7 µM; at cyclin E/CDK2 enzyme (setting [6]) it was > 50 µM; in the experiment with MCF-7 (3 days) it was 9.6 µM; at cyclin B/CDK1 enzyme (setting [7]), > 50 µM; on cyclin D1/cdk 4 enzyme (setting [8]), 1.9 µM; in the experiment on LoVo (3 days) it was 9.4 µM. Moreover, the IC50 in the experiment on HCT-116 (3 days) was 10.5 µM.

Regarding `CCN1CCCC1c1ccc(N/C=C2\C(=O)NC(=O)c3ccc(-c4ccoc4)cc32)cc1` (stereo not drawn) [Example 473, 4-{[4-(1-Ethyl-pyrrolidin-2-yl)-phenylamino]-methylene}-6-furan-3-yl-4H-isoquinoline-1,3-dione], the concentration for half-maximal inhibition (IC50) with BT474 (setting [1]) is 1.5 µM; at cyclin E/CDK2 enzyme (setting [6]) it was > 50 µM; with MCF-7 (3 days), 2 µM; on cyclin B/CDK1 enzyme (setting [7]), > 50 µM; on cyclin D1/cdk 4 enzyme (setting [8]), 0.05 µM; with LoVo (3 days), 2.3 µM. In the experiment with HCT-116 (3 days), the IC50 turned out to be 2.4 µM.

Turning to `O=C1NC(=O)c2ccc(-c3cccc([N+](=O)[O-])c3)cc2C1=CNCc1ccc(O)c(O)c1` [Example 820, 4-[(3,4-Dihydroxy-benzylamino)-methylene]-6-(3-nitro-phenyl)-4H-isoquinoline-1,3-dione], the IC50 with BT474 (setting [1]) is > 50 µM; at cyclin E/CDK2 enzyme (setting [6]), 27.1 µM; in the experiment with MCF-7 (3 days), > 50 µM; at cyclin B/CDK1 enzyme (setting [7]), > 50 µM; on cyclin D1/cdk 4 enzyme (setting [8]) it was 2.1 µM; in the experiment with LoVo (3 days), 47.9 µM. The IC50 with HCT-116 (3 days) amounted to 41.5 µM.

For `O=C1NC(=O)c2ccc(-c3ccc(C(F)(F)F)cc3)cc2C1=CNCc1ccc(O)c(O)c1` [Example 772, 4-[(3,4-Dihydroxy-benzylamino)-methylene]-6-(4-trifluoromethyl-phenyl)-4H-isoquinoline-1,3-dione], the 50% inhibitory concentration (IC50) in the experiment on BT474 (setting [1]) was determined as 28.1 µM; on cyclin E/CDK2 enzyme (setting [6]) it was 10.7 µM; with MCF-7 (3 days), 12.2 µM; at cyclin B/CDK1 enzyme (setting [7]), 40.6 µM; at cyclin D1/cdk 4 enzyme (setting [8]), 0.51 µM; in the experiment on LoVo (3 days), 15.4 µM. The IC50 with HCT-116 (3 days) was found to be 15.6 µM.

In the case of `CC(C)N1CCN(c2ccc(N/C=C3\C(=O)NC(=O)c4ccc(I)cc43)cc2)CC1` [Example 386, (4Z)-6-Iodo-4-({[4-(4-isopropylpiperazin-1-yl)phenyl]amino}methylene)isoquinoline-1,3(2H,4H)-dione], the concentration for half-maximal inhibition (IC50) in the experiment with BT474 (setting [5]) was 7 µM; on cyclin E/CDK2 enzyme (setting [2]) it was > 50 µM; with MCF-7 (three days), 2.2 µM; on cyclin B/CDK1 enzyme (setting [3]) it was > 50 µM; on cyclin D1/cdk 4 enzyme (setting [4]) it was 0.6 µM; in the experiment with LoVo (three days), 6.5 µM. In addition, the IC50 in the experiment with HCT-116 (three days) came out at 2.6 µM.

Take `O=C1NC(=O)c2ccc(I)cc2/C1=C/NCc1ccc(NC(=O)c2ccccc2)c(O)c1` [Example 334, N-[2-Hydroxy-4-({[(Z)-(6-iodo-1,3-dioxo-2,3-dihydroisoquinolin-4(1H)-ylidene)methyl]amino}methyl)phenyl]benzamide]: the IC50 in the experiment on BT474 (setting [5]) was 7.2 µM; on cyclin E/CDK2 enzyme (setting [2]) it was 7.8 µM; in the experiment on MCF-7 (three days), 7.9 µM; on cyclin B/CDK1 enzyme (setting [3]) it was > 50 µM; on cyclin D1/cdk 4 enzyme (setting [4]), 0.07 µM; in the experiment on LoVo (three days) it was 5.9 µM. Moreover, in the experiment on HCT-116 (three days), the concentration for half-maximal inhibition (IC50) was found to be 7.1 µM.
